Results from US8802597B2, “Herbicidal pyrimidines” (E I du Pont de Nemours and Company, priority 2003, dated 2014).

Experiments:
Experiment in all cases: Test C pre/postemergence
Type in all cases: in vivo
[1] = test system: Surinam grass (Brachiaria decumbens); conditions: for Plant response rating (scale of 0 to 100), Surinam Grass / Surinam Grass plant response rating: Postemergence; for Surinam Grass plant response rating: scale 0 to 100 (0 no effect, 100 complete control); for Plant response rating, Surinam Grass: Preemergence
How it was run: (§1)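 Rating scale 0–100: 0 means no effect, 100 complete control; taken visually 12 to 14 days post-treatment versus controls. Pre- and postemergence greenhouse applications, postemergence at 1- to 4-leaf stage, non-phytotoxic solvent with surfactant as carrier.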

[2] = test system: common ragweed (Ambrosia elatior); conditions: for Plant response rating (scale of 0 to 100), Ragweed / Ragweed plant response rating: Postemergence; for Ragweed plant response rating: scale 0 to 100 (0 no effect, 100 complete control); for Plant response rating, Ragweed: Preemergence
How it was run: as §1

[3] = test system: goosegrass (Eleusine indica); conditions: for Plant response rating (scale of 0 to 100), Goosegrass / Goosegrass plant response rating: Postemergence; for Goosegrass plant response rating: scale 0 to 100 (0 no effect, 100 complete control); for Plant response rating, Goosegrass: Preemergence
How it was run: as §1

[4] = test system: lambsquarters (Chenopodium album); conditions: for Plant response rating (scale of 0 to 100), Lambsquarters / Lambsquarters plant response rating: Postemergence; for Lambsquarters plant response rating: scale 0 to 100 (0 no effect, 100 complete control); for Plant response rating, Lambsquarters: Preemergence
How it was run: as §1

kochia (Kochia scoparia) = conditions: for Plant response rating (scale of 0 to 100), Kochia / Kochia plant response rating: Postemergence; for Kochia plant response rating: scale 0 to 100 (0 no effect, 100 complete control); for Plant response rating, Kochia: Preemergence
How it was run: as §1

[5] = test system: yellow nutsedge (Cyperus esculentus); conditions: for Plant response rating (scale of 0 to 100), Nutsedge, Yellow / Nutsedge, Yellow plant response rating: Postemergence; for Nutsedge, Yellow plant response rating: scale 0 to 100 (0 no effect, 100 complete control); for Plant response rating, Nutsedge, Yellow: Preemergence
How it was run: as §1

[6] = test system: common (oilseed) sunflower (Helianthus annuus); conditions: Preemergence
How it was run: as §1

[7] = test system: velvetleaf (Abutilon theophrasti); conditions: for Plant response rating (scale of 0 to 100), Velvetleaf / Velvetleaf plant response rating: Postemergence; for Velvetleaf plant response rating: scale 0 to 100 (0 no effect, 100 complete control); for Plant response rating, Velvetleaf: Preemergence
How it was run: as §1

corn (Zea mays) = conditions: for Plant response rating (scale of 0 to 100), Corn / Corn plant response rating: Postemergence; for Corn plant response rating: scale 0 to 100 (0 no effect, 100 complete control); for Plant response rating, Corn: Preemergence
How it was run: as §1

[8] = test system: crabgrass (Digitaria sanguinalis); conditions: for Plant response rating (scale of 0 to 100), Crabgrass / Crabgrass plant response rating: Postemergence; for Crabgrass plant response rating: scale 0 to 100 (0 no effect, 100 complete control); for Plant response rating, Crabgrass: Preemergence
How it was run: as §1

[9] = test system: cocklebur (Xanthium strumarium); conditions: for Plant response rating (scale of 0 to 100), Cocklebur / Cocklebur plant response rating: Postemergence; for Cocklebur plant response rating: scale 0 to 100 (0 no effect, 100 complete control); for Plant response rating, Cocklebur: Preemergence
How it was run: as §1

[10] = test system: pigweed (Amaranthus retroflexus); conditions: for Plant response rating (scale of 0 to 100), Pigweed / Pigweed plant response rating: Postemergence; for Pigweed plant response rating: scale 0 to 100 (0 no effect, 100 complete control); for Plant response rating, Pigweed: Preemergence
How it was run: as §1

[11] = 16 g ai/ha, scale 0 to 100, 0 no effect, 100 complete control
[12] = 31 g ai/ha, scale 0 to 100, 0 no effect, 100 complete control
[13] = 62 g ai/ha, scale 0 to 100, 0 no effect, 100 complete control

CCOC(=O)C(OC(C)=O)c1nc(C2CC2)nc(N)c1Br (centres unmarked) [Compound 47]
Plant response rating (scale of 0 to 100), Surinam Grass ([1]; 16 g ai/ha): 0
Plant response rating (scale of 0 to 100), Surinam Grass ([1]; 31 g ai/ha): 0
Surinam Grass plant response rating ([1]; 62 g ai/ha): 0
Surinam Grass plant response rating ([1]; 125 g ai/ha): 20
Plant response rating, Surinam Grass [1, 11]: 0
Plant response rating, Surinam Grass [1, 12]: 0
Plant response rating, Surinam Grass [1, 13]: 0
Plant response rating, Surinam Grass ([1]; 125 g ai/ha, scale 0 to 100): 0
Plant response rating (scale of 0 to 100), Ragweed ([2]; 16 g ai/ha): 0
Plant response rating (scale of 0 to 100), Ragweed ([2]; 31 g ai/ha): 0
Ragweed plant response rating ([2]; 62 g ai/ha): 40
Ragweed plant response rating ([2]; 125 g ai/ha): 80
Plant response rating, Ragweed [2, 11]: 0
Plant response rating, Ragweed [2, 13]: 45
Plant response rating, Ragweed ([2]; 125 g ai/ha, scale 0 to 100): 65
Plant response rating (scale of 0 to 100), Goosegrass ([3]; 16 g ai/ha): 0
Plant response rating (scale of 0 to 100), Goosegrass ([3]; 31 g ai/ha): 0
Goosegrass plant response rating ([3]; 62 g ai/ha): 0
Goosegrass plant response rating ([3]; 125 g ai/ha): 0
Plant response rating, Goosegrass [3, 11]: 0
Plant response rating, Goosegrass [3, 12]: 45
Plant response rating, Goosegrass [3, 13]: 85
Plant response rating, Goosegrass ([3]; 125 g ai/ha, scale 0 to 100): 90
Plant response rating (scale of 0 to 100), Lambsquarters ([4]; 16 g ai/ha): 0
Plant response rating (scale of 0 to 100), Lambsquarters ([4]; 31 g ai/ha): 45
Lambsquarters plant response rating ([4]; 62 g ai/ha): 70
Lambsquarters plant response rating ([4]; 125 g ai/ha): 80
Plant response rating, Lambsquarters [4, 11]: 0
Plant response rating, Lambsquarters [4, 13]: 85
Plant response rating, Lambsquarters ([4]; 125 g ai/ha, scale 0 to 100): 95
Plant response rating (scale of 0 to 100), Kochia (kochia (Kochia scoparia); 16 g ai/ha): 0
Plant response rating (scale of 0 to 100), Kochia (kochia (Kochia scoparia); 31 g ai/ha): 0
Kochia plant response rating (kochia (Kochia scoparia); 62 g ai/ha): 20
Kochia plant response rating (kochia (Kochia scoparia); 125 g ai/ha): 100
Plant response rating, Kochia (kochia (Kochia scoparia); [11]): 0
Plant response rating, Kochia (kochia (Kochia scoparia); [13]): 0
Plant response rating, Kochia (kochia (Kochia scoparia); 125 g ai/ha, scale 0 to 100): 100
Plant response rating (scale of 0 to 100), Nutsedge, Yellow ([5]; 16 g ai/ha): 0
Plant response rating (scale of 0 to 100), Nutsedge, Yellow ([5]; 31 g ai/ha): 0
Nutsedge, Yellow plant response rating ([5]; 62 g ai/ha): 0
Nutsedge, Yellow plant response rating ([5]; 125 g ai/ha): 0
Plant response rating, Nutsedge, Yellow [5, 11]: 0
Plant response rating, Nutsedge, Yellow [5, 12]: 0
Plant response rating, Nutsedge, Yellow [5, 13]: 0
Plant response rating, Nutsedge, Yellow ([5]; 125 g ai/ha, scale 0 to 100): 0
Plant response rating, Sunflower [6, 11]: 0
Plant response rating, Sunflower [6, 12]: 0
Plant response rating, Sunflower [6, 13]: 20
Plant response rating, Sunflower ([6]; 125 g ai/ha, scale 0 to 100): 100
Plant response rating (scale of 0 to 100), Velvetleaf ([7]; 16 g ai/ha): 0
Plant response rating (scale of 0 to 100), Velvetleaf ([7]; 31 g ai/ha): 0
Velvetleaf plant response rating ([7]; 62 g ai/ha): 0
Velvetleaf plant response rating ([7]; 125 g ai/ha): 0
Plant response rating, Velvetleaf [7, 11]: 0
Plant response rating, Velvetleaf [7, 12]: 20
Plant response rating, Velvetleaf [7, 13]: 20
Plant response rating, Velvetleaf ([7]; 125 g ai/ha, scale 0 to 100): 50
Plant response rating (scale of 0 to 100), Corn (corn (Zea mays); 16 g ai/ha): 0
Plant response rating (scale of 0 to 100), Corn (corn (Zea mays); 31 g ai/ha): 0
Corn plant response rating (corn (Zea mays); 62 g ai/ha): 0
Corn plant response rating (corn (Zea mays); 125 g ai/ha): 0
Plant response rating, Corn (corn (Zea mays); [11]): 0
Plant response rating, Corn (corn (Zea mays); [12]): 0
Plant response rating, Corn (corn (Zea mays); [13]): 0
Plant response rating, Corn (corn (Zea mays); 125 g ai/ha, scale 0 to 100): 0
Plant response rating (scale of 0 to 100), Crabgrass ([8]; 16 g ai/ha): 0
Plant response rating (scale of 0 to 100), Crabgrass ([8]; 31 g ai/ha): 0
Crabgrass plant response rating ([8]; 62 g ai/ha): 0
Crabgrass plant response rating ([8]; 125 g ai/ha): 20
Plant response rating, Crabgrass [8, 11]: 20
Plant response rating, Crabgrass [8, 12]: 100
Plant response rating, Crabgrass [8, 13]: 100
Plant response rating, Crabgrass ([8]; 125 g ai/ha, scale 0 to 100): 100
Plant response rating (scale of 0 to 100), Cocklebur ([9]; 16 g ai/ha): 35
Plant response rating (scale of 0 to 100), Cocklebur ([9]; 31 g ai/ha): 45
Cocklebur plant response rating ([9]; 62 g ai/ha): 60
Cocklebur plant response rating ([9]; 125 g ai/ha): 65
Plant response rating, Cocklebur [9, 11]: 0
Plant response rating, Cocklebur [9, 12]: 0
Plant response rating, Cocklebur [9, 13]: 70
Plant response rating, Cocklebur ([9]; 125 g ai/ha, scale 0 to 100): 75
Plant response rating (scale of 0 to 100), Pigweed ([10]; 16 g ai/ha): 0
Plant response rating (scale of 0 to 100), Pigweed ([10]; 31 g ai/ha): 15
Pigweed plant response rating ([10]; 62 g ai/ha): 45
Pigweed plant response rating ([10]; 125 g ai/ha): 70
Plant response rating, Pigweed [10, 11]: 0
Plant response rating, Pigweed [10, 12]: 80
Plant response rating, Pigweed [10, 13]: 85
Plant response rating, Pigweed ([10]; 125 g ai/ha, scale 0 to 100): 85
